17 molecules from patent US11491165B2 (Kinoxis Therapeutics Pty Ltd, priority 2016, dated 2022) can be followed below.

In data set [1] the target is T1, oxytocin receptor (OXTR), hOTR (Homo sapiens, UniProt P30559).
T1 construct: expressed in transfected cells
T1 sequence (P30559 1-389): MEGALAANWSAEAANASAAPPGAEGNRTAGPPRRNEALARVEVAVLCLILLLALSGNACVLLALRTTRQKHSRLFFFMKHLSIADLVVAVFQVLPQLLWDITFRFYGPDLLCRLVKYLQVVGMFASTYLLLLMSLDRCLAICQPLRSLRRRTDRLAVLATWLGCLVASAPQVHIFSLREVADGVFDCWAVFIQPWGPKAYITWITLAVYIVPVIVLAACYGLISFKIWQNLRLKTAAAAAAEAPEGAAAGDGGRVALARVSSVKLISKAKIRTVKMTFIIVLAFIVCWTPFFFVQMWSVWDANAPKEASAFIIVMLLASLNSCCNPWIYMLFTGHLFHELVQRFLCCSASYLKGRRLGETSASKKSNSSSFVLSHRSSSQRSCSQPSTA
The data set can be described thus: Competition radioligand binding, [3H]-oxytocin, OTR-expressing HEK293 membranes. The conditions noted are these: [3H]-oxytocin 10 nM, 90 min 4 °C. As for the experimental part:
(§1) Human embryonic kidney cells (HEK-293) transfected to stably express untagged hOTR and V1aR using the Flp-In™ T-REx™ system (Life Technologies, Carlsbad, Calif. USA) were established as reported in Jorgensen et al., 2016 (the entire disclosure of which is hereby incorporated by reference). Cells were subsequently maintained in 10% DMEM containing hygromycin (80 μg/ml), penicillin (100 U/ml), streptomycin (0.1 mg/ml) and blasticidine S hydrochloride (15 μg/ml).
(§2) To induce receptor expression, cells were incubated with tetracycline (2 μg/mL) for 48 h. PBS with 5 mM EDTA (pH 7.4) was used to detach OTR and V1aR-expressing HEK293 cells from culture flasks. Harvested cells were centrifuged at 1200 g for 5 min and were resuspended in homogenization buffer (50 mM HEPES, 5 mM EDTA, 5 mM MgCl2; pH 7.4) prior to homogenization using an Ultra-Turrax homogeniser (IKA, Wilmington, N.C., USA). Homogenates were centrifuged three times for 30 min at 48.000 g, 4° C. for 30 min and membrane pellets resuspended in 50 mM Tris HCl, 5 mM MgCl2 (pH 7.4). A bicinchoninic acid assay was used according to the manufacturer's protocol (Bio-Rad, Hercules. Calif., USA) to measure final protein concentration. Membranes were stored at −80° C. until use in competition radioligand binding studies.
(§3) Reactions were incubated for 90 min at 4° C. to reach equilibrium, and terminated by rapid filtration over glass fibre filters (Whatman GF/A […]; Millipore, Darmstadt, Germany), and washing with ice-cold reaction buffer. Filters were dried, then incubated with Microscint 0 (Perkin Elmer) for 30 min before radioactivity was detected with a Microbeta2 2450 microplate-reader (Perkin Elmer). […] Specific binding in the presence of compounds was expressed as a percentage of specific binding in the presence of vehicle control. A sum-of-squares F-test was used to compare the goodness of fit of one-site, two-site and sigmoidal with variable hill slope binding models, and to calculate Ki's using Graphpad Prism (Graphpad Software, La Jolla, Calif., USA).

Data set [2] concerns the target T1, oxytocin receptor (OXTR), hOTR. The experiment in a line: IP1 accumulation assay, OTR-expressing HEK-293 cells (agonist and antagonist assessment). The conditions noted are these: for Emax: HEK293, read-out: OXTR Emax (% OXT); for EC50: IP1, 1 h; for OV function: ratio of OXTR functional potency to V1aR functional potency, 'OT only' = function at OXTR only. In kind it is cell-based. As for the experimental part:
as §1
(§4) OTR or V1aR-expressing HEK-293 cells were seeded onto poly-L-lysine (100 μg/ml)-coated 384-well plates at a density of 8.75×10^3 cells per well. Cells were incubated in tetracycline (2 μg/mL) for 48 h to induce receptor expression. Intracellular IP1 levels induced by activation of the Gq protein coupled to the OTR and V1aR was indexed using the HTRF IP-One kit (CisBio International, Bedford, Mass., USA), according to manufacturer's protocol. For agonist assessment, cells were incubated with logarithmically-spaced concentrations of compounds (1 nM-100 μM) for 1 h prior to the addition of Ab-Cryptate and IP1-d2 for 1 h. The contents of each well were transferred to a white-walled proxy plate (Perkin Elmer) and fluorescence read using a Pherastar Microplate reader (BMG Labtech, Cary, N.C., USA). For antagonist assessment, cells were incubated an ˜EC70 concentration of OT (30 nM) or AVP (25 nM) mixed with compounds (1 nM-100 μM) or vehicle control for 1 h. IP1 levels in the presence of compounds and OT or AVP were expressed as a percentage of levels seen with OT or AVP in the presence of vehicle control. Concentration response curves for OT and AVP were determined after 5 min incubation in drug or vehicle, and the data fitted using GraphPad PRISM to a 4-parameter logistic equation of the form y=Min+(Max−Min)/(1+10^((logEC50−X)*n)) where X is drug concentration and n is the H-ill slope. Data represent the mean±s.d. of at least 3 independent experiments, each in duplicate.

Data set [3] concerns the target T2, vasopressin 1a receptor (V1aR) (Homo sapiens, UniProt P37288).
T2 construct: expressed in transfected cells
The data set can be described thus: Competition radioligand binding, [3H]-vasopressin, V1aR-expressing HEK293 membranes. The conditions noted are these: [3H]-vasopressin 2 nM, 90 min 4 °C. As for the experimental part:
as §1, §2, §3

The target in data set [4] is T2, vasopressin 1a receptor (V1aR). The experiment in a line: IP1 accumulation assay, V1aR-expressing HEK-293 cells (agonist and antagonist assessment). In kind it is cell-based. To be noted: for EC50: agonist assessment, IP1, 1 h; for IC50: antagonist assessment vs AVP 25 nM (~EC70), IP1. As for the experimental part: Cells were subsequently maintained in 10% DMEM containing hygromycin (80 μg/ml), penicillin (100 U/ml), streptomycin (0.1 mg/ml) and blasticidine S hydrochloride (15 μg/ml).
as §4, with “Cells” for “OTR or V1aR-expressing HEK-293 cells were seeded onto poly-L-lysine (100 μg/ml)-coated 384-well plates at a density of 8.75×10^3 cells per well. Cells”, “For antagonist assessment, cells were incubated an ˜EC70 concentration of OT (30 nM) or AVP (25 nM) mixed with compounds (1 nM-100 μM) or vehicle control for 1 h.” left out

SMILES strings stand for the structures. Where only a bound is given, the exact number is not on record here.

T2 sequence (P37288 whole entry): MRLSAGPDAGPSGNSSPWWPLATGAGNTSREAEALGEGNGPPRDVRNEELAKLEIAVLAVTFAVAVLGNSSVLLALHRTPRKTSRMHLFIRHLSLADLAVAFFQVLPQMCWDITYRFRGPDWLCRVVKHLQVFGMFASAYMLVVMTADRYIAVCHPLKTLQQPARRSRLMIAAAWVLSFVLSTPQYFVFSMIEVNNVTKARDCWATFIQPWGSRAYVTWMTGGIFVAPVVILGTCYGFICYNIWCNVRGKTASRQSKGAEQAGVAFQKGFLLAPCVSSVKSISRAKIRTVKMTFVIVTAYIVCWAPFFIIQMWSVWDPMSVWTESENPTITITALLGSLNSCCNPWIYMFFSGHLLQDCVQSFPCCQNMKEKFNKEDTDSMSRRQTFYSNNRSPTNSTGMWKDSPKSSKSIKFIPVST

`COC(=O)C12CCC(C(=O)N3Cc4cnn(C)c4Nc4ccccc43)(CC1)CC2` [BcO-MC, methyl 4-(1-methyl-1,4,5,10-tetrahydrobenzo[b]pyrazolo[3,4-e][1,4]diazepine-5-carbonyl)bicyclo[2.2.2]octane-1-carboxylate] registered a melting point of 198 to 211 °C.
On to `Cn1ncc2c1Nc1ccccc1N(C(=O)C1CCCCC1)C2` [CA6 (KA), cyclohexyl(1-methyl-4,10-dihydrobenzo[b]pyrazolo[3,4-e][1,4]diazepin-5 (1H)-yl)methanone], for which the Ki was 1080 ± 323 nM in data set [1] and 236 ± 75 nM in data set [3]. Also, the Emax in data set [2] amounted to 17%. In addition, the values for the EC50 in data set [2] (agonist assessment) and in data set [4] were 481 ± 61 nM and greater than 10000 nM, respectively. Moreover, the OV function in data set [2] was less than 0.04. In data set [4], the IC50 was greater than 10000 nM.
Molecule `Cn1ncc2c1Nc1ccccc1N(C(=O)c1cc(OCc3ccccc3)cc(OCc3ccccc3)c1)C2` [Example 9, (3,5-Bis(benzyloxy)phenyl)(1-methyl-4,10-dihydrobenzo[b]pyrazolo[3,4-e][1,4]diazepin-5 (1H)-yl)methanone] yielded a melting point of 221 to 224 °C.
`Cn1ncc2c1Nc1ccccc1N(C(=O)C13C4C5C6C4C1C6C53)C2` (stereo not drawn) [QB] registered a melting point of 194 to 203 °C.
Molecule `Cn1ncc2c1Nc1ccccc1N(C(=O)c1ccc(O)cc1)C2` [TAR-B049, (4-hydroxyphenyl)(1-methyl-4,10-dihydrobenzo[b]pyrazolo[3,4-e][1,4]diazepin-5 (1H)-yl)methanone] yielded a melting point greater than 300 °C.
The molecule `CCCCCCOc1ccc(C(=O)N2Cc3cnn(C)c3Nc3ccccc32)cc1` [TAR-B085, (4-(hexyloxy)phenyl)(1-methyl-4,10-dihydrobenzo[b]pyrazolo[3,4-e][1,4]diazepin-5 (1H)-yl)methanone] returned a melting point of 204 to 206 °C.
Consider `CC1CCC(C(=O)N2Cc3cnn(C)c3Nc3ccccc32)CC1` (stereo not drawn) [TAR-C41, (1-methyl-4,10-dihydrobenzo[b]pyrazolo[3,4-e][1,4]diazepin-5 (1H)-yl)(4-methylcyclohexyl)methanone], for which the melting point fell in the range of 234 to 239 °C.
Same read-out and setting: to `Cn1ncc2c1Nc1ccccc1N(C(=O)c1ccc(C(=O)O)cc1)C2` [TAR-C077, 4-(1-methyl-1,4,5,10-tetrahydrobenzo[b]pyrazolo[3,4-e][1,4]diazepine-5-carbonyl)benzoic acid] belongs greater than 300 °C.
Molecule `Cn1ncc2c1Nc1ccccc1N(C(=O)c1ccc3c(c1)OCO3)C2` [TRGA95, benzo[d][1,3]dioxol-5-yl(1-methyl-4,10-dihydrobenzo[b]pyrazolo[3,4-e][1,4]diazepin-5 (1H)-yl)methanone] showed a Ki in data set [1] of 159 ± 32 nM. In data set [2], the Emax turned out to be 13% and the OV function is 0.06. The molecule also gave an EC50 in data set [2] (agonist assessment) of 91 ± 25 nM. In addition, in data set [3], the Ki came out at 18 ± 1 nM. In data set [4], the EC50 was greater than 10000 nM and the IC50 is 1530 ± 444 nM.
Regarding `Cn1ncc2c1Nc1ccccc1N(C(=O)c1ccc3ccccc3c1)C2` [TRGA-81, (1-methyl-4,10-dihydrobenzo[b]pyrazolo[3,4-e][1,4]diazepin-5 (1H)-yl)(naphthalen-2-yl)methanone], the melting point lay within 228 to 243 °C.
The molecule `Cn1ncc2c1Nc1ccccc1N(C(=O)c1cccc3ccccc13)C2` [TRGA-89, (1-methyl-4,10-dihydrobenzo[b]pyrazolo[3,4-e][1,4]diazepin-5 (1H)-yl)(naphthalen-1-YI)methanone] displayed a melting point of 231 to 233 °C.
As for `Cc1cc(C(=O)N2Cc3cnn(C)c3Nc3ccccc32)ccc1CNC(=O)N1CCN(Cc2cc(O)cc(O)c2)CC1` [WAY, reference compound], in data set [2], the Emax amounted to 45% and the OV function is listed as 0.69.
Turning to `COc1ccccc1C(=O)N1Cc2cnn(C)c2Nc2ccccc21` [WJ0659, (2-Methoxyphenyl)(1-methyl-4,10-dihydrobenzo[b]pyrazolo[3,4-e][1,4]diazepin-5 (1H)-yl)methanone], the melting point was 281 to 282 °C (dec.).
In turn, `Cn1ncc2c1Nc1ccccc1N(C(=O)c1ccc(Br)cc1)C2` [WJ0820, (4-Bromophenyl)(1-methyl-4,10-dihydrobenzo[b]pyrazolo[3,4-e][1,4]diazepin-5 (1H)-yl)methanone] had a melting point of 249 to 251 °C.
On to `Cn1ncc2c1Nc1ccccc1N(C(=O)c1cccc(Br)c1)C2` [WJ0821, (3-Bromophenyl)(1-methyl-4,10-dihydrobenzo[b]pyrazolo[3,4-e][1,4]diazepin-5 (1H)-yl)methanone], for which the melting point lay within 218 to 220 °C.
The same measure, in the same setting: the value for `Cn1ncc2c1Nc1ccccc1N(C(=O)c1ccccc1Br)C2` [WJ0822, (2-Bromophenyl)(1-methyl-4,10-dihydrobenzo[b]pyrazolo[3,4-e][1,4]diazepin-5 (1H)-yl)methanone] was 244 to 246 °C.
The molecule `Cc1cccc(C(=O)N2Cc3cnn(C)c3Nc3ccccc32)c1` [WJ0823, (1-Methyl-4,10-dihydrobenzo[b]pyrazolo[3,4-e][1,4]diazepin-5 (1H)-yl)(m-tolyl)methanone] returned a melting point of 254 to 256 °C. Further, the Ki in data set [1] was determined as 553 ± 155 nM. Moreover, the Emax in data set [2] was 16.8%. For the same molecule, the “EC50 (OXTR agonist potency, mean ± s.d.)” value in data set [2] (agonist assessment, IP1) is reported as 420 ± 37 nM. Also, the EC50 in data set [2] (agonist assessment) amounted to 407 ± 102 nM. Further, in data set [4], the EC50 was greater than 10000 nM and the IC50 is greater than 10000 nM.
